Source: US20180000085A1, “USE OF PICOLINAMIDE COMPOUNDS WITH FUNGICIDAL ACTIVITY” (DOW AGROSCIENCES LLC, priority 2014, published 2018)

Columns and labels:
Type in all cases: in vivo
Zymoseptoria tritici = assay: Leaf blotch of wheat (SEPTTR) disease control on wheat seedlings; details: for SEPTTR 1DP disease control rating, LV activity at 125.1 g/H / SEPTTR 3DC disease control rating, LV activity at 125.1 g/H / SEPTTR 1DP, LV activity at 125.1 g/H (% Control rating) / SEPTTR 3DC, LV activity at 125.1 g/H (% Control rating): low volume application; for SEPTTR 1DP disease control rating, LV activity at 125.1 g/H: 1 day protectant; for SEPTTR 3DC disease control rating, LV activity at 125.1 g/H: 3 day curative
Puccinia triticina = assay: Wheat brown rust (PUCCRT) disease control on wheat seedlings; details: for PUCCRT 1DP disease control rating, LV activity at 125.1 g/H / PUCCRT 3DC disease control rating, LV activity at 125.1 g/H / PUCCRT 1DP, LV activity at 125.1 g/H (% Control rating) / PUCCRT 3DC, LV activity at 125.1 g/H (% Control rating): low volume application; for PUCCRT 1DP disease control rating, LV activity at 125.1 g/H: 1 day protectant; for PUCCRT 3DC disease control rating, LV activity at 125.1 g/H: 3 day curative
Phakopsora pachyrhizi = assay: Asian soybean rust (PHAKPA) disease control; design: key: A: > 80; B: ≤ 80; C: Not Tested; D: No Activity Observed in the Reported Assay; details: 25 ppm; for PHAKPA disease control, 1DP: 1 Day Protectant; for PHAKPA disease control, 3DC: 3 Day Curative

| Compound | SEPTTR 1DP disease control rating, LV activity at 125.1 g/H (Zymoseptoria tritici) | SEPTTR 3DC disease control rating, LV activity at 125.1 g/H (Zymoseptoria tritici) | PUCCRT 1DP disease control rating, LV activity at 125.1 g/H (Puccinia triticina) | PUCCRT 3DC disease control rating, LV activity at 125.1 g/H (Puccinia triticina) | PHAKPA disease control, 1DP (Phakopsora pachyrhizi) | PHAKPA disease control, 3DC (Phakopsora pachyrhizi) | SEPTTR 1DP, LV activity at 125.1 g/H (% Control rating) (Zymoseptoria tritici; 1 Day Protectant) | SEPTTR 3DC, LV activity at 125.1 g/H (% Control rating) (Zymoseptoria tritici; 3 Day Curative) | PUCCRT 1DP, LV activity at 125.1 g/H (% Control rating) (Puccinia triticina; 1 Day Protectant) | PUCCRT 3DC, LV activity at 125.1 g/H (% Control rating) (Puccinia triticina; 3 Day Curative) | other results |
| --- | --- | --- | --- | --- | --- | --- | --- | --- | --- | --- | --- |
| CCC(CC)[C@H](Oc1ccc(Cl)cc1)[C@H](C)OC(=O)[C@H](C)NC(=O)c1nccc(OC)c1OCOC(C)=O [Cmpd 669] | A (> 80) | A (> 80) | A (> 80) | A (> 80) | A (> 80) | B (≤ 80) |  |  |  |  |  |
| COc1ccnc(C(=O)N[C@@H](C)C(=O)O[C@@H](C)[C@H](Oc2cccc(Cl)c2)C(C)C)c1OCOC(C)=O [Cmpd 561] |  |  |  |  | A (> 80) | A (> 80) | A (> 80) | A (> 80) | A (> 80) | A (> 80) |  |
| COCC[C@H](Cc1ccc(F)cc1)[C@@H](Oc1ccccc1)[C@H](C)OC(=O)[C@H](C)NC(=O)c1nccc(OC)c1OCOC(C)=O [Cmpd 498] |  |  |  |  | A (> 80) | B (≤ 80) | A (> 80) | A (> 80) | A (> 80) | A (> 80) |  |
| COc1ccnc(C(=O)N[C@H](C(=O)O[C@@H](C)[C@H](Oc2cccc(Cl)c2)C(C)C)C(C)C)c1OC(C)=O [Cmpd 569] |  |  |  |  | A (> 80) | B (≤ 80) | B (≤ 80) | A (> 80) | A (> 80) | A (> 80) |  |
| COc1ccnc(C(=O)N[C@@H](C)C(=O)O[C@@H](C)[C@H](OCC(C)C)c2ccccc2)c1OC(C)=O [Cmpd 879] | B (≤ 80) | A (> 80) | A (> 80) | A (> 80) | A (> 80) | B (≤ 80) |  |  |  |  |  |
| CCC(CC)[C@@H](Oc1cccc(Cl)c1)[C@H](C)OC(=O)[C@H](C)NC(=O)c1nccc(OC)c1OC(C)=O [Cmpd 599] |  |  |  |  | A (> 80) | A (> 80) | A (> 80) | A (> 80) | B (≤ 80) | A (> 80) |  |
| COc1ccnc(C(=O)N[C@@H](C)C(=O)O[C@@H](C)[C@H](Oc2ccc(F)cc2)C(C)C)c1OCOC(C)=O [Cmpd 615] |  |  |  |  | A (> 80) | B (≤ 80) | A (> 80) | A (> 80) | A (> 80) | A (> 80) |  |
| C=CC(OCCC)C(Oc1ccccc1)C(C)OC(=O)C(C)NC(=O)c1nccc(OC)c1OCOC(C)=O (stereo not shown) [Cmpd 455] |  |  |  |  | A (> 80) | B (≤ 80) |  |  |  |  | SEPTTR 1DP disease control rating, HV activity (Zymoseptoria tritici; HV application at 100 ppm, 1 Day Protectant, wheat leaf blotch): A (> 80); SEPTTR 3DC disease control rating, HV activity (Zymoseptoria tritici; HV application at 100 ppm, 3 Day Curative, wheat leaf blotch): A (> 80); SEPTTR 1DP disease control rating, LV activity (Zymoseptoria tritici; Low volume application at 125.1 g/H, 1 Day Protectant, wheat leaf blotch): A (> 80); SEPTTR 3DC disease control rating, LV activity (Zymoseptoria tritici; Low volume application at 125.1 g/H, 3 Day Curative, wheat leaf blotch): A (> 80); PUCCRT 1DP disease control rating, HV activity (Puccinia triticina; HV application at 100 ppm, 1 Day Protectant, wheat brown rust): A (> 80); PUCCRT 3DC disease control rating, HV activity (Puccinia triticina; HV application at 100 ppm, 3 Day Curative, wheat brown rust): A (> 80); PUCCRT 1DP disease control rating, LV activity (Puccinia triticina; Low volume application at 125.1 g/H, 1 Day Protectant, wheat brown rust): A (> 80); PUCCRT 3DC disease control rating, LV activity (Puccinia triticina; Low volume application at 125.1 g/H, 3 Day Curative, wheat brown rust): A (> 80) |
| CCC[C@@H](Oc1ccccc1)[C@H](C)OC(=O)[C@H](C)NC(=O)c1nccc(OC)c1OC(C)=O [Cmpd 696] | A (> 80) | A (> 80) | A (> 80) | A (> 80) | A (> 80) | A (> 80) |  |  |  |  |  |
| COc1ccnc(C(=O)N[C@@H](C)C(=O)O[C@@H](C)[C@H](Oc2ccc(C)cc2)C2CCCC2)c1OC(C)=O [Cmpd 923] | B (≤ 80) | B (≤ 80) | A (> 80) | A (> 80) | A (> 80) | B (≤ 80) |  |  |  |  |  |
| COc1ccnc(C(=O)N[C@@H](C)C(=O)O[C@@H](C)[C@H](Oc2cccc(Cl)c2)C2CCCC2)c1OCOC(C)=O [Cmpd 911, (S)-(1R,2S)-1-(3-chlorophenoxy)-1-cyclopentylpropan-2-yl-2-(3-(acetoxymethoxy)-4-methoxypicolinamido)propanoate] | A (> 80) | A (> 80) | A (> 80) | A (> 80) | A (> 80) | B (≤ 80) |  |  |  |  |  |
| COc1ccnc(C(=O)N[C@@H](C)C(=O)O[C@@H](C)[C@H](Oc2cccc(F)c2)c2ccccc2)c1OC(C)=O [Cmpd 575] |  |  |  |  | A (> 80) | B (≤ 80) | A (> 80) | A (> 80) | A (> 80) | A (> 80) |  |
| CCCO[C@H](c1ccccc1)[C@H](C)OC(=O)[C@H](C)NC(=O)c1nccc(OC)c1OC(C)=O [Cmpd 884] | B (≤ 80) | A (> 80) | A (> 80) | A (> 80) | A (> 80) | D |  |  |  |  |  |
| CCC(CC)[C@@H](Oc1cc(F)cc(Cl)c1)[C@H](C)OC(=O)[C@H](C)NC(=O)c1nccc(OC)c1OCOC(C)=O [Cmpd 592] |  |  |  |  | A (> 80) | A (> 80) | A (> 80) | A (> 80) | A (> 80) | A (> 80) |  |
